Here are results for seven compounds from PMC9054915 (Cancer Chemotherapy and Pharmacology, 2022).

The conditions of data set [1]: cited from earlier work.
Another data set relates to Caco-2. Also noted: method as in earlier work. To be noted: enzalutamide PBPK model input; cited from earlier work.
In data set [2] the test system is CYP3A4. To be noted: cited from earlier work.
The conditions of data set [3]: cited from earlier work. This is another data set of the same source.
For data set [4], the target named is T1, CYP3A4 (Homo sapiens, UniProt P08684). The note with it: cited from earlier work.
Data set [5] addresses T1, CYP3A4. From the text: (§1) The physiochemical and ADME parameters used for the development of the initial PBPK model are summarized Table S1. […] The volume of distribution at steady state (Vss) was obtained from the clinical absolute bioavailability study (ClinicalTrials.gov Identifier: NCT02390492). A tissue to plasma partition coefficient (Kp) scalar was applied to match the predicted Vss (predicted with in Simcyp using Method 3, Rodgers et al. + ion membrane permeability) to the observed value. The IV clearance determined in the clinical absolute bioavailability study was used (ClinicalTrials.gov Identifier: NCT02390492). […] The CYP3A4 inhibition parameters for competitive inhibition and TDI determined using in vitro assays (Data on file) were incorporated into the model.
(§2) The age range of 37–76 and the proportion of females of 0.69 were used in the simulation.

A further data set is described as follows: clinical. The note with it: human, in vivo, po, 200 mg.
Data set [6] deals with CYP3A4. The data set is described as follows: In vitro CYP3A4 induction. Format: in vitro ADME. From the text:
(§3) This is due to the difficulty in differentiating between the inhibition and induction from the clinical data and that the PBPK model parameters were optimized to represent a net inhibition effect.

For data set [7] the following is noted: cited from earlier work; for Observed AUC0-∞ / Observed AUC0-24: geometric mean (CV%); for Observed AUC0-24: Steady state.
For data set [8], the target named is T1, CYP3A4. In words: Clinical study: ipatasertib 300 mg QD with palbociclib (NCT04060862). To be noted: in vivo.
Data set [9] can be described thus: Biliary excretion of unchanged ipatasertib. Format: in vivo. The note with it: rats and monkeys dosed with 10 mg/kg and 5 mg/kg.
Excerpt: as §3

Data set [10] can be described thus: Human mass balance and absolute bioavailability study (NCT02390492).
Another data set concerns the target P-glycoprotein (P-gp) (Homo sapiens, UniProt P08183). The data set is described as follows: In vitro P-glycoprotein substrate assessment. Format: in vitro ADME.
Excerpt: as §3

Data set [11] addresses T1, CYP3A4. To be noted: ipatasertib 100 mg single oral dose with and without itraconazole 200 mg QD, cited from earlier work.
The conditions of data set [12]: male, human, in vivo, iv.
For data set [13] the following is noted: cited from earlier work. This is another data set of the same source.
For data set [14], the system named is MDCK (Madin-Darby Canine Kidney). The data set is described as follows: MDCK permeability.
Excerpt: as §1

A short description of another data set: MDCK permeability. To be noted: dog, MDCK.
Excerpt: as §1

Data set [15] in a line: Blood-to-plasma partition ratio and fraction unbound in plasma. The note with it: mean at concentration from 0.1 to 40 µM, data on file, read-out: fu,plasma. Format: in vitro ADME.
Data set [16] in a line: Physicochemical parameters (LogP, pKa, compound type; in-house data).
Excerpt: as §1

Data set [17] can be described thus: Solubility of ipatasertib. The note with it: across the pH range of 1.1–7.0. In kind it is physicochemical.
Excerpt: as §1

In data set [18] the target is T1, CYP3A4. The note with it: cited from earlier work; for AUC ratio Observation: midazolam AUC0–∞ with/without ipatasertib 600 mg QD; for AUC ratio Observation / Cmax ratio Observation: geometric mean ratio (90% CI); for Cmax ratio Observation: midazolam Cmax with/without ipatasertib 600 mg QD.
In data set [19] the target is T1, CYP3A4. In words: PBPK simulation: midazolam with ipatasertib 600 mg QD. As for the experimental part:
as §2
Therefore, sensitivity analyses of inhibitory parameters, where only one parameter (Ki or Kinact) varied at a time, were performed for all three models described above.

For data set [20] the following is noted: palbociclib PBPK model input; cited from earlier work.
The target of data set [21] is T1, CYP3A4. In words: clinical. To be noted: female, in vivo, 125 mg.
The mark [22] stands for this setting: enzalutamide 160 mg QD with ipatasertib, clinical observation, geometric mean (CV%).

Read-outs that look alike come from different tables or passages of the source.

T1 sequence (P08684 whole entry): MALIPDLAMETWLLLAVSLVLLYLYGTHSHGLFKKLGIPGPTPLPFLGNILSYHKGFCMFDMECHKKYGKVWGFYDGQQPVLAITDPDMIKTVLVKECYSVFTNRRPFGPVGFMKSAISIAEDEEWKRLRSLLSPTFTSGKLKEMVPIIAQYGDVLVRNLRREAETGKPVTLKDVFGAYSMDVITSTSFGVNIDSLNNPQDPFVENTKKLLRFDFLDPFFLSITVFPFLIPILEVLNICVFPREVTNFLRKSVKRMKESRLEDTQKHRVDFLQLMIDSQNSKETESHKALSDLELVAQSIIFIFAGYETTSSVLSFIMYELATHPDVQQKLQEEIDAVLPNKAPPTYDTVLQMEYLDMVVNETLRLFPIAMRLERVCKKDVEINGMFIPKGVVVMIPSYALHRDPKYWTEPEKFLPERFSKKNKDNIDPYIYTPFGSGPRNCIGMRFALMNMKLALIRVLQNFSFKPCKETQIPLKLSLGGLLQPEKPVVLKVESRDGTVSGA
P-glycoprotein (P-gp), sequence (P08183 whole entry): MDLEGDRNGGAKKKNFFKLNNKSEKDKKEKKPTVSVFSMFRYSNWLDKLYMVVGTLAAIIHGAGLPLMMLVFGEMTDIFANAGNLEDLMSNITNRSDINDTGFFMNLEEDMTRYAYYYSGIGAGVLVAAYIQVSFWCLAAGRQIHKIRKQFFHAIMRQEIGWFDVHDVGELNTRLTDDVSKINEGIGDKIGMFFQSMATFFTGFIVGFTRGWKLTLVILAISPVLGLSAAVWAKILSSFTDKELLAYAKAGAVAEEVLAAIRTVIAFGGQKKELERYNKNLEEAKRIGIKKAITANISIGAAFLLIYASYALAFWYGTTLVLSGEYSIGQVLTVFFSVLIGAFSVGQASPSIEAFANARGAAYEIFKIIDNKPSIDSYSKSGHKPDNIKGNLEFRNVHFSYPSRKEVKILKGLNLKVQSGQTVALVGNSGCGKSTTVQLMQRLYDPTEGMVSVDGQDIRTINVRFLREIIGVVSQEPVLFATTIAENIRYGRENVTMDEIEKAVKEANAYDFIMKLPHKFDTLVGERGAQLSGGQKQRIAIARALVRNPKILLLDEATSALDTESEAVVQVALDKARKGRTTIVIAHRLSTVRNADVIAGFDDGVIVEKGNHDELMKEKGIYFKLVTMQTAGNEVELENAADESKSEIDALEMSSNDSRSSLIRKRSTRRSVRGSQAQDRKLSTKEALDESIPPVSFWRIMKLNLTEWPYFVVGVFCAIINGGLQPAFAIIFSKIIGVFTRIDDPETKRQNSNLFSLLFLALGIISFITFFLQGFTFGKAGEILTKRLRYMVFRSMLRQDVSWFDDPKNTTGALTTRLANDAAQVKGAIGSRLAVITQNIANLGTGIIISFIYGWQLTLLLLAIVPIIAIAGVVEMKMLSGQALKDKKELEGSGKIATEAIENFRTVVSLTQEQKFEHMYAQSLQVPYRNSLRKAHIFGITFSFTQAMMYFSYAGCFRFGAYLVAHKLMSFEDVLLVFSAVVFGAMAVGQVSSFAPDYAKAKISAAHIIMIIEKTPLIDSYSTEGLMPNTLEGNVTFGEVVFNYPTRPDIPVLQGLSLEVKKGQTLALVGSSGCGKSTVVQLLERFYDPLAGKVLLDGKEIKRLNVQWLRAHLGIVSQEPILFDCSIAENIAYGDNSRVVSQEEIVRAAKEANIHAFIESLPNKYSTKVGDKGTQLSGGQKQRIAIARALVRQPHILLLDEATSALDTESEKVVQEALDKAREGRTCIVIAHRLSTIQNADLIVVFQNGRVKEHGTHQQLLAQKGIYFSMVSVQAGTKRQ

A word on the Ki: it is the equilibrium dissociation constant of an inhibitor or competing ligand from its target. For `CNC(=O)c1ccc(N2C(=S)N(c3ccc(C#N)c(C(F)(F)F)c3)C(=O)C2(C)C)cc1F` [Enzalutamide], the CLpo in data set [1] (enzalutamide, in vivo clearance) was 0.54 L/h. In addition, the Caco-2 permeability with Caco-2 is on record as 31 10^-6 cm/s. In addition, in the data set on CYP3A4 [2] (enzalutamide PBPK model input), the “Ind max (CYP3A4 induction)” value is 8. For the same compound, the EC50 with CYP3A4 [2] (enzalutamide PBPK model input, read-out: Ind C50 (CYP3A4 induction)) was 2500 nM. Moreover, in the data set with CYP3A4 [2] (enzalutamide PBPK model input, read-out: Ki (CYP3A4 competitive inhibition)), the Ki is 42 µM. The “fu, plasma” value in data set [3] (enzalutamide PBPK model input) is on record as 0.024. At CYP3A4 [4] (setting [22]), the “Observed AUCss” value is 341 (25%) µg*hr/ml and the “Observed Cmax” value is recorded as 17 (22%) µg/ml.

Usually AUC stands for concentration integrated over time. The term Cmax denotes the maximum level reached in the sampled fluid or tissue. The Tmax is the time at which the peak concentration occurs. The term Vd denotes the apparent volume that relates the amount in the body to the concentration in plasma or blood. By bioavailability is commonly meant dose-corrected exposure relative to a reference, in per cent. A high value points to good availability. What is called Papp is a coefficient for how fast a substance crosses the barrier. A word on the logP: it is the decadic logarithm of the partition coefficient of the neutral form, usually between octanol and water. Broadly, the solubility is the dissolved amount per volume that the medium holds. Consider `CC(C)NC[C@@H](C(=O)N1CCN(c2ncnc3c2[C@H](C)C[C@H]3O)CC1)c1ccc(Cl)cc1` [Ipatasertib], for which, at CYP3A4 [5], the CYP3A4 substrate/inhibitor status entry was “a substrate and a competitive and time-dependent inhibitor (TDI) of CYP3A4”. Moreover, the “Kapp (CYP3A4 time-dependent inhibition)” value on CYP3A4 [5] is reported as 9.66 µM. Also, the CL renal in “clinical” is 322 mL/min. In addition, the “CYP3A4 induction in vitro” value in the data set on CYP3A4 [6] was “weak CYP3A4 inducer in vitro”. The “dose proportionality of exposure” value in [7] (200 to 800 mg, single dose or multiple doses) was “approximately dose-proportional”; in [7] (low doses of 25–50 mg), “more than dose-proportional increase in exposures”. The “Observed AUC0-∞” value is 34.0 (107%) ng*hr/ml in [7] (Day 1, 25 mg oral (n=3)); 84.6 (50.1%) ng*hr/ml in [7] (Day 1, 50 mg oral (n=3)); 365 (21.5%) ng*hr/ml in [7] (Day 1, 100 mg oral (n=3)); 999 (21.2%) ng*hr/ml in data set [7] (Day 1, 200 mg oral (n=3)); 2230 (14.1%) ng*hr/ml in [7] (Day 1, 400 mg oral (n=3)); 3460 (36.4%) ng*hr/ml in [7] (Day 1, 600 mg oral (n=7)). Further, in [7] (Day 1, 800 mg oral (n=7)), the “Observed AUC0-∞” value was 4100 (68.6%) ng*hr/ml. In addition, the “Observed AUC0-24” value in data set [7] (25 mg (n=3)) is given as 88.3 (77.8%) ng*hr/ml; in data set [7] (50 mg (n=3)), 171 (11%) ng*hr/ml; in data set [7] (200 mg (n=3)), 1770 (14.6%) ng*hr/ml; in [7] (400 mg (n=3)) it was 3210 (22.3%) ng*hr/ml; in data set [7] (600 mg (n=7)) it was 4450 (43.8%) ng*hr/ml; in data set [7] (800 mg (n=7)), 6670 (66.1%) ng*hr/ml. Also, on CYP3A4 [8], the AUC amounted to 2510 ng·h/mL. Moreover, the concentration at CYP3A4 [8] peaked (Cmax) at 314 ng/mL. Besides, the Tmax on CYP3A4 [8] was found to be 1.5 h. In data set [9], the “unchanged drug found in bile” value is listed as 2.9–5.8%. This compound had a volume of distribution (Vd) in data set [10] (human, in vivo, intravenous, 0.08 mg) of 39.1 L/kg. The compound further had a bioavailability in [10] (human, in vivo, oral, 200 mg) of 34%. Further, the “unchanged drug eliminated in urine” value in data set [10] (single 200 mg oral dose) is reported as roughly 8%. For the same compound, the P-gp substrate status entry at P-glycoprotein (P-gp) is listed as “substrate of P-glycoprotein (P-gp)”. For the same compound, the “AUC Observation” value at CYP3A4 [11] (ipatasertib AUC0–∞, geometric mean (CV%)) is on record as 327 (26.4%) ng* h/ml; at CYP3A4 [4] (ipatasertib AUC0–24 h, ipatasertib 400 mg QD with and without enzalutamide 160 mg QD, geometric mean (CV%)), 2170 (53.8%) ng* h/ml. Moreover, the “Cmax Observation” value on CYP3A4 [11] (ipatasertib Cmax, geometric mean (CV%)) is listed as 44.9 (35.9%) ng/ml; on CYP3A4 [4] (ipatasertib Cmax, ipatasertib 400 mg QD with and without enzalutamide 160 mg QD, patients with prostate cancer, geometric mean (CV%)), 284 (66.5%) ng/ml. The “Tmax Observation” value at CYP3A4 [11] (ipatasertib Tmax, median (range)) was 1.07 (0.50–3.03) h; at CYP3A4 [4] (ipatasertib Tmax, ipatasertib 400 mg QD with and without enzalutamide 160 mg QD, median (range)) it was 1.85 (0.63–4.00) h. This compound also had a CLiv in data set [12] of 100 L/h. In addition, in data set [13], the “effect of food on exposures” value is “Food does not affect exposures”. Moreover, the “permeability (in words)” value in [14] is listed as “moderate permeability”. In “MDCK permeability”, this compound came in with an apparent permeability (Papp) of 3.55 ×10⁻⁶ cm/s. For the same compound, in data set [15], the fraction unbound is 0.63. At CYP3A4 [4] (in the presence of enzalutamide, patients with prostate cancer), the “observed decrease in ipatasertib Cmax” value was roughly 53%. Moreover, the Compound type entry in data set [16] is listed as “Diprotic base”. For the same compound, in data set [16], the logP was 3. For the same compound, the pKa in data set [16] (read-out: pKa1) was 9; in data set [16] (read-out: pKa2), 4.9. The solubility in data set [17] was greater than 10000 µg/mL.

In the case of `Cc1ncc2n1-c1ccc(Cl)cc1C(c1ccccc1F)=NC2` [Midazolam], at CYP3A4 [18], the “AUC ratio Observation” value is reported as 2.22 (1.57–3.12) and the “Cmax ratio Observation” value is given as 1.29 (0.97–1.71). Moreover, on CYP3A4 [18] (listed as midazolam), the “AUC ratio Observation” value is reported as 2.22 and the “Cmax ratio Observation” value was 1.29. The “AUC Observation” value at CYP3A4 [18] (midazolam AUC0–∞, midazolam 2 mg single oral dose with and without ipatasertib 600 mg QD, geometric mean (CV%)) is reported as 39.3 (58.4%) ng* h/ml. Besides, on CYP3A4 [18] (midazolam Cmax, midazolam 2 mg single oral dose with and without ipatasertib 600 mg QD, geometric mean (CV%)), the “Cmax Observation” value is recorded as 15.0 (51.6%) ng/ml. Moreover, the “Tmax Observation” value at CYP3A4 [18] (midazolam Tmax, midazolam 2 mg single oral dose with and without ipatasertib 600 mg QD, median (range)) is recorded as 0.50 (0.50–1.00) h. For the same compound, the “AUC P/O” value at CYP3A4 [19] (predicted/observed midazolam AUC0–∞, midazolam 2 mg with and without ipatasertib 600 mg QD) is given as 0.59. For the same compound, the “AUC ratio P/O” value on CYP3A4 [19] (predicted/observed midazolam AUC ratio, ipatasertib 600 mg QD) is 1.00. Further, the “Cmax ratio P/O” value on CYP3A4 [19] (predicted/observed midazolam Cmax ratio, ipatasertib 600 mg QD) was 1.33. This compound also had an apparent permeability coefficient (Papp) in the data set “MDCK permeability” of 18.8 ×10⁻⁶ cm/s.

As a reminder, the Vss is a proportionality between amount in the body and measured concentration, not a real space. As for `CC(=O)c1c(C)c2cnc(Nc3ccc(N4CCNCC4)cn3)nc2n(C2CCCC2)c1=O` [Palbociclib], in data set [1] (palbociclib PBPK model input), the CLR is 6.6 L/h, the Fa is recorded as 0.85, the Ka is 0.12 h⁻¹ and the Vss is 14.558 L/kg. For the same compound, the logP in [20] is recorded as 0.99. Further, the “Kapp (CYP3A4 time-dependent inhibition)” value in the data set on CYP3A4 [2] (palbociclib PBPK model input) is 10 µM. The “fu, plasma” value in data set [3] (palbociclib PBPK model input) is 0.147. For the same compound, on CYP3A4 [21], the AUC came to 2560 ng·h/mL and the Cmax was 123 ng/mL.

Turning to `CN/C(=N/CCSCc1nc[nH]c1C)NC#N` [cimetidine], the Papp in the data set “MDCK permeability” was found to be 1 ×10⁻⁶ cm/s.

As for `COCCc1ccc(OCC(O)CNC(C)C)cc1` (stereo not drawn) [metoprolol], in the data set “MDCK permeability”, the Papp amounted to 24.8 ×10⁻⁶ cm/s.

On to `CC(C)NCC(O)COc1cccc2ccccc12` (stereo not drawn) [propranolol], for which the apparent permeability coefficient (Papp) in “MDCK permeability” came to 20.9 ×10⁻⁶ cm/s.
